In patent publication US20070154581A1, “Composition and method for enhancing or stimulating the immune system” (priority 2005, published 2007):
In brackets after ≈: the same amount, converted by molar mass. Where two headings read alike, the source gives them in different places.

Columns and labels:
[1] = alliin in itself; cited from earlier work
[2] = tested on: human immunodeficiency virus-infected cell system; details: cited from earlier work
Trypanosoma cruzi = details: cited from earlier work
[3] = tested on: phosphatidylcholine biosynthesis; details: cited from earlier work
[4] = tested on: trophozoites of E. histolytica; details: 5 μg/mL, in vitro; cited from earlier work
[5] = tested on: Streptococcus β hemolyticus; details: Clinical MDR strain; cited from earlier work
Leishmania major = details: 30 μg/mL; cited from earlier work
[6] = tested on: tissue-cultured mammalian cells; details: cited from earlier work
[7] = target: acetyl-CoA-forming system, consisting of acetate kinase and phosphotransacetyl-CoA synthetase; details: cited from earlier work
[8] = target: T1, NAD-dependent alcohol dehydrogenase (Equus caballus, UniProt P00327); assay: Inhibition of thiol enzymes by allicin; assay type: biochemical, horse; details: could be reactivated with thiol-containing compounds
T1 construct: the NAD-dependent alcohol dehydrogenase from horse liver; from tissue; host or cells: horse liver
T1 sequence (P00327 2-375 limits assumed): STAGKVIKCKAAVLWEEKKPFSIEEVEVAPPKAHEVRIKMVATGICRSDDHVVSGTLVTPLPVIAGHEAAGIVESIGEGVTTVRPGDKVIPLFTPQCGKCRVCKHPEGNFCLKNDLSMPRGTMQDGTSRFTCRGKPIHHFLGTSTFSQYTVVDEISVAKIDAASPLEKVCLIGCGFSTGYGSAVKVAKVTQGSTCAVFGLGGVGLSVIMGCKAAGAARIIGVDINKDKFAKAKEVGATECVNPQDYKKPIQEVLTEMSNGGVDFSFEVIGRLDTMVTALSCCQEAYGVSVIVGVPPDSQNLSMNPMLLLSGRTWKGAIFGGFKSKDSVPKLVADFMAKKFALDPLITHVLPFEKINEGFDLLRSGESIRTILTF

Streptococcus progenies = details: Sensitive; cited from earlier work
Proteus mirabilis = details: cited from earlier work
[9] = tested on: tissue-cultured mammalian cells
[10] = target: NADP-dependent alcohol dehydrogenase (Thermoanaerobacter brockii, UniProt P14941); assay: Inhibition of thiol enzymes by allicin; assay type: biochemical, Thermoanaerobium brockii; details: could be reactivated with thiol-containing compounds
NADP-dependent alcohol dehydrogenase, sequence (P14941 whole entry): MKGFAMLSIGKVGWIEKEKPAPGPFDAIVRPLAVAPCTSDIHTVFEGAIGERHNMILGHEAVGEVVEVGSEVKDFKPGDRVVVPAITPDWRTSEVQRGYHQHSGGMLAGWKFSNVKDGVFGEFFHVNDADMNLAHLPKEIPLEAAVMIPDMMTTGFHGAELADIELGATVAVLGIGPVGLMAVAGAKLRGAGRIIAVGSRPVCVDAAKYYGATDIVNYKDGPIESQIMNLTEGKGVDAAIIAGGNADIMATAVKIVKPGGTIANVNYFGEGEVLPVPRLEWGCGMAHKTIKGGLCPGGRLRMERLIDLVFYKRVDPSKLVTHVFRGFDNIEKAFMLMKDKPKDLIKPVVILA

Candida tropicalis = details: cited from earlier work
Enterococcus faecium = details: Clinical MDR strain; cited from earlier work
Acinetobacter baumanii = details: Clinical isolate; cited from earlier work
cysteine proteinases = assay: Inhibition of thiol-containing enzymes of the amoeba parasite; assay type: biochemical
thiol-protease papain = thiol-protease papain (Carica papaya, UniProt P00784); assay: Inhibition of thiol enzymes by allicin; assay type: biochemical; details: could be reactivated with thiol-containing compounds
thiol-protease papain, sequence (P00784 134-345): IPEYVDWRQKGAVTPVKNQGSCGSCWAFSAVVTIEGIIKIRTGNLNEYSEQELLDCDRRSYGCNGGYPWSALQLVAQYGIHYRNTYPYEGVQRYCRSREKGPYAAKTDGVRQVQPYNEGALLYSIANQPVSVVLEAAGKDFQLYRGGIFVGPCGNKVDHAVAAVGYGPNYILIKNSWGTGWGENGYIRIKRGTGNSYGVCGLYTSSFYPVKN

[11] = tested on: Acetate incorporation into fatty acids of isolated plastids; details: read-out: 50% inhibitory concentration (I 50 value); cited from earlier work
alcohol dehydrogenases = assay: Inhibition of thiol-containing enzymes of the amoeba parasite; assay type: biochemical
Staphylococcus aureus = details: cited from earlier work
[12] = tested on: mucoid strains of Pseudomonas aeruginosa, Streptococcus β hemnolyticus and Enterococcus faecium; details: cited from earlier work
Salmonella typhimurium = details: 0.2 to 0.5 mM; cited from earlier work
Candida parapsilosis = details: cited from earlier work
[13] = Candida neoformans; cited from earlier work
Candida albicans = details: cited from earlier work
Pseudomonas aeruginosa = details: cited from earlier work
Crithidia fasciculata = details: 30 μg/mL; cited from earlier work
thioredoxin reductases = assay: Inhibition of thiol-containing enzymes of the amoeba parasite; assay type: biochemical
Candida krusei = details: cited from earlier work
Escherichia coli = details: cited from earlier work
Entainoeba histolytica = details: cited from earlier work
Giardia lamblia = details: 30 μg/mL; cited from earlier work
[14] = tested on: methicillin resistant Staphylococcus aureus, multidrug-resistant enterotoxicogenic Escherichia coli, Enterococcus, Shigella dysenteriae, S. flexneni and S. …; details: strains resistant to antibiotics; cited from earlier work
Candida = details: pure allicin; cited from earlier work
Klebsiella pneumoniae = details: Clinical isolate; cited from earlier work
Leptornonas colosoma = details: 30 μg/mL; cited from earlier work
Torulopsis glabrata = details: cited from earlier work
S. fiexneri Y = details: rabbit; cited from earlier work

Compound: (+)-S-allyl-L-cysteine-sulfoxide [alliin]
- antimicrobial activity [1]: no antimicrobial activity

Compound: C=CCSSC=CC[S+]([O-])CC=C (mixture of isomers) [ajoene]
- integrin-dependent processes [2]: block the integrin-dependent processes
- proliferation of Trypanosoma cruzi (Trypanosoma cruzi): inhibit the proliferation
- phosphatidylcholine biosynthesis [3]: inhibit phosphatidylcholine biosynthesis

Compound: C=CCS[S+]([O-])CC=C (centres unmarked) [allicin]
- inhibition of virulence of trophozoites [4]: 90%
- Allicin Concentration (LD50 ug/ml) [5]: >100 µg/mL
- growth inhibition (Leishmania major): very efficiently inhibited
- concentration at which some toxicity towards tissue-cultured mammalian cells was observed [6]: above 100 μM
- kind of inhibition [7]: noncovalent and reversible
- inhibition of NAD-dependent alcohol dehydrogenase from horse liver [8]: irreversibly inhibited
- Allicin Concentration (LD50 ug/ml) (Streptococcus progenies): 3 µg/mL
- Allicin Concentration (LD50 ug/ml) (Proteus mirabilis; Prloteus marbles, Sensitive): 15 µg/mL
- Allicin Concentration (LD50 ug/ml) (Proteus mirabilis; Proteus mirabilis, Clinical MDR strain): >30 µg/mL
- concentration toxic to tissue-cultured mammalian cells [9]: > 100 µg/mL
- inhibition of NADP-dependent alcohol dehydrogenase from Thermoanaerobium brockii [10]: irreversibly inhibited
- Allicin concentration MIC (Candida tropicalis): 0.3 mg/L
- Allicin Concentration (LD50 ug/ml) (Enterococcus faecium): >100 µg/mL
- Allicin Concentration (LD50 ug/ml) (Acinetobacter baumanii): 15 µg/mL
- concentration at which inhibition was observed (cysteine proteinases): > 10 µg/mL
- inhibition of papain (thiol-protease papain): irreversibly inhibited
- IC50 [11]: < 10 mM
- concentration at which inhibition was observed (alcohol dehydrogenases): > 10 µg/mL
- Allicin Concentration (LD50 ug/ml) (Staphylococcus aureus; Methicillin resistant): 12 µg/mL
- Allicin Concentration (LD50 ug/ml) (Staphylococcus aureus; Sensitive): 12 µg/mL
- sensitivity to allicin [12]: resistant
- effect on DNA and protein synthesis (Salmonella typhimurium): partially inhibit
- effect on RNA synthesis (Salmonella typhimurium): immediate
- Allicin concentration MIC (Candida parapsilosis): 0.15 mg/L
- Allicin concentration MIC [13]: 0.3 mg/L
- Allicin concentration MIC (Candida albicans; Clinical isolates): 0.8 mg/L
- Allicin concentration MIC (Candida albicans): 0.3 mg/L
- Allicin Concentration (LD50 ug/ml) (Pseudomonas aeruginosa; MDR mucoid strain): >100 µg/mL
- Allicin Concentration (LD50 ug/ml) (Pseudomonas aeruginosa; Sensitive to cefprozil): 15 µg/mL
- growth inhibition (Crithidia fasciculata): very efficiently inhibited
- concentration at which inhibition was observed (thioredoxin reductases): > 10 µg/mL
- Allicin concentration MIC (Candida krusei): 0.3 mg/L
- Allicin Concentration (LD50 ug/ml) (Escherichia coli; Multidrug resistant MDR): 15 µg/mL
- Allicin Concentration (LD50 ug/ml) (Escherichia coli; Sensitive to antibiotics): 15 µg/mL
- concentration that totally inhibits the growth of amoeba cultures (Entainoeba histolytica): 30 µg/mL
- growth inhibition (Giardia lamblia): very efficiently inhibited
- sensitivity to allicin [14]: sensitive
- minimum inhibitory concentration (Candida): 7 mg/L (≈ 43.1 µM)
- Allicin Concentration (LD50 ug/ml) (Klebsiella pneumoniae): 8 µg/mL
- growth inhibition (Leptornonas colosoma): very efficiently inhibited
- Allicin concentration MIC (Torulopsis glabrata; Clinical isolates): 1.9 mg/L
- Allicin concentration MIC (Torulopsis glabrata): 0.3 mg/L
- antibacterial activity in vivo (S. fiexneri Y): in vivo antibacterial activity
